Reference: patent US20190099259A1, “Method for Treatment and Prevention of Biofilm Formation During Breast Augmentation Procedures” (Integrated Healing Technologies, LLC, priority 2017, published 2019)

Key:
R. pickettii biofilm = assay: biofilm assay on silicone breast implants; type: cell-based, Ralstonia Pickettii
Method: Biofilm assays were performed after 2 to 3 mL of 10^5 CFU/mL bacterial inoculum was added to each tube containing the respective implants and placed into a shaking incubator (250-300 rpm) at 30° C. for 24 hours, allowing for formation of biofilm on implants. After 24 hours' incubation, the implants having the biofilm were rinsed twice with Butterfields phosphate buffer. After the rinses, the implants were aseptically transferred to tubes containing 5 mL test articles for contact time points; 5 min and 2 hours. Postincubation, the implants were rinsed twice with Butterfields phosphate buffer, placed in 5 mL of sterile neutralizing buffer and sonicated at 50 to 60 Hz for 5 minutes. Tenfold serial dilutions were performed for each sample tube using neutralizing buffer as the diluent. A total of 100 μL of appropriate dilutions of each sample were plated on a nutrient agar plate in duplicates and incubated overnight. The colonies were counted postincubation. Data were evaluated by comparing the difference in CFU/mL for the implants and blank control at 5 min and 2 hours.

[1] = test system: microbial cells and spore; details: cited from earlier work

SMILES | effect in the biofilm model (R. pickettii biofilm; general statement) | potency as a germicide versus equivalent molar ratio of hypochlorite anion [1] | antibiofilm activity (R. pickettii biofilm; Biocell implant, 5 minutes) | antibiofilm activity (R. pickettii biofilm; Biocell implant, 2 hours) | antibiofilm activity (R. pickettii biofilm; Siltex implant, 5 minutes) | antibiofilm activity (R. pickettii biofilm; Siltex implant, 2 hours) | penetration of established biofilm (R. pickettii biofilm; after two hours) | antibiofilm activity (R. pickettii biofilm; smooth implant, 5 minutes) | antibiofilm activity (R. pickettii biofilm; smooth implant, 2 hours)
OCl [Hypochlorous acid, hypochlorous acid] | effective at reducing Ralstonia Pickettii bacterial numbers | 80-100 times | – | – | – | – | – | – | –
[H]/N=C(\N/C(=N/[H])NCCCCCCNC(=N)NC(=N)Nc1ccc(Cl)cc1)Nc1ccc(Cl)cc1 [Chlorhexidine gluconate] | – | – | did not have antibiofilm activity | did not have antibiofilm activity | did not have antibiofilm activity | did not have antibiofilm activity | unable to penetrate established biofilm | limited reduction | complete eradication
